Measured values as given in US10947271B2, “Antibacterial agents” (THE UNIVERSITY OF QUEENSLAND, priority 2014, dated 2021).

Legend:
Assay type in all cases: cell-based
Settings in all cases: 24 h incubation, visual reading
[1] = tested on: Streptococcus pneumoniae MDR ATCC 700677; assay: MIC assay, S. pneumoniae MDR ATCC 700677
Protocol: (§1) Antimicrobial activity of compounds was tested against a number of bacterial strains, including Staphylococcus aureus (MRSA ATCC 43300, GISA NRS17, VISA NRS1, MRSA clinical isolate, daptomycin resistant clinical isolate), Streptococcus pneumoniae (MDR ATCC 700677), Enterococcus faecalis (VanA clinical isolate) and Enterococcus faecium (MDR Van A ATCC 51559).
(§2) All compounds were prepared to 160 μg/ml solution in water from a stock solution of 1 mM concentration.
(§3) The compounds, along with standard antibiotics were serially diluted twofold across the wells of 96-well non-binding surface plates (NBS, Corning). Standards ranged from 64 μg/ml to 0.03 μg/ml and compounds from 8 μg/ml to 0.003 μg/ml with final volumes of 50 μL per well. Gram positive bacteria were cultured in Muller Hinton broth (MHB) (Bacto laboratories, Cat. no. 211443) at 37° C. overnight. A sample of each culture was then diluted 40-fold in fresh MHB broth and incubated at 37° C. for 2-3 hrs. The resultant mid-log phase cultures were diluted to the final concentration of 5×10e5 CFU/mL, then 50 μL was added to each well of the compound-containing 96-well plates. All the plates were covered and incubated at 37° C. for 24 h. MICs were the lowest concentration showing no visible growth.
(§4) MICs were determined visually at 24 hr incubation and the MIC was defined as the lowest concentration with which no growth was visible after incubation. Both MIC and MBC were determined by visual inspection only.

[2] = tested on: Enterococcus faecium MDR Van A ATCC 51559; assay: MIC assay, E. faecium MDR Van A ATCC 51559
Protocol: as §1, §2, §3, §4

[3] = tested on: Staphylococcus aureus MRSA ATCC 43300; assay: MIC assay, S. aureus MRSA ATCC 43300
Protocol: as §1, §2, §3, §4

SMILES	Minimum Inhibitory Concentration (MIC) S. pneumoniae ATCC 700677 [1]	Minimum Inhibitory Concentration (MIC) E. faecium ATCC51559 [2]	Minimum Inhibitory Concentration (MIC) Staph. aureus ATCC43300 [3]
CCCCCCCCCCC(=O)NCC(=O)N[C@@H](CCCCN)C(=O)N[C@@H](CCCCN)C(=O)N[C@@H](CCCCN)C(=O)N[C@@H](CCCCNC(=O)[C@H]1NC(=O)[C@H]2NC(=O)[C@H](NC(=O)[C@@H]3NC(=O)[C@H](CC(N)=O)NC(=O)[C@H](NC(=O)[C@@H](CC(C)C)NC)[C@H](O)c4ccc(c(Cl)c4)Oc4cc3cc(c4O[C@@H]3O[C@H](CO)[C@@H](O)[C@H](O)[C@H]3O[C@H]3C[C@](C)(N)[C@H](O)[C@H](C)O3)Oc3ccc(cc3Cl)[C@H]2O)c2ccc(O)c(c2)-c2c(O)cc(O)cc21)C(=O)O [MCC_000346]	xxxx (xxxx = 0.01-<0.1)	x (x = >4)	xxxx (xxxx = 0.01-<0.1)
CCCCCCCNc1ccc(C(=O)N[C@@H](CCCCN)C(=O)N[C@@H](CCCCN)C(=O)N[C@@H](CCCCNC(=O)[C@H]2NC(=O)[C@H]3NC(=O)[C@H](NC(=O)[C@@H]4NC(=O)[C@H](CC(N)=O)NC(=O)[C@H](NC(=O)[C@@H](CC(C)C)NC)[C@H](O)c5ccc(c(Cl)c5)Oc5cc4cc(c5O[C@@H]4O[C@H](CO)[C@@H](O)[C@H](O)[C@H]4O[C@H]4C[C@](C)(N)[C@H](O)[C@H](C)O4)Oc4ccc(cc4Cl)[C@H]3O)c3ccc(O)c(c3)-c3c(O)cc(O)cc32)C(N)=O)cc1 [MCC_004821]	xxxx (xxxx = 0.01-<0.1)	xx (xx = 1-4)	xxxx (xxxx = 0.01-<0.1)
CCCCCCCC(=O)NCCCC[C@H](NC(=O)CCCCCCC)C(=O)N[C@@H](CCCCN)C(=O)N[C@@H](CCCCN)C(=O)N[C@@H](CCCCNC(=O)[C@H]1NC(=O)[C@H]2NC(=O)[C@H](NC(=O)[C@@H]3NC(=O)[C@H](CC(N)=O)NC(=O)[C@H](NC(=O)[C@@H](CC(C)C)NC)[C@H](O)c4ccc(c(Cl)c4)Oc4cc3cc(c4O[C@@H]3O[C@H](CO)[C@@H](O)[C@H](O)[C@H]3O[C@H]3C[C@](C)(N)[C@H](O)[C@H](C)O3)Oc3ccc(cc3Cl)[C@H]2O)c2ccc(O)c(c2)-c2c(O)cc(O)cc21)C(=O)NC [MCC_000654]	xxxx (xxxx = 0.01-<0.1)	xx (xx = 1-4)	xxxxx (xxxxx = <0.01)

Continued, values first:

Minimum Inhibitory Concentration (MIC) S. pneumoniae ATCC 700677 [1]	Minimum Inhibitory Concentration (MIC) E. faecium ATCC51559 [2]	Minimum Inhibitory Concentration (MIC) Staph. aureus ATCC43300 [3]	SMILES
xx (xx = 1-4)	x (x = >4)	xx (xx = 1-4)	CCCCCCCCCC(=O)N[C@@H](CCCCN1CCOCC1)C(=O)N[C@@H](CCCCNC(=O)[C@H]1NC(=O)[C@H]2NC(=O)[C@H](NC(=O)[C@@H]3NC(=O)[C@H](CC(N)=O)NC(=O)[C@H](NC(=O)[C@@H](CC(C)C)NC)[C@H](O)c4ccc(c(Cl)c4)Oc4cc3cc(c4O[C@@H]3O[C@H](CO)[C@@H](O)[C@H](O)[C@H]3O[C@H]3C[C@](C)(N)[C@H](O)[C@H](C)O3)Oc3ccc(cc3Cl)[C@H]2O)c2ccc(O)c(c2)-c2c(O)cc(O)cc21)C(=O)O [MCC_007379]
xxx (xxx = 0.1-<1)	x (x = >4)	xxx (xxx = 0.1-<1)	CCCCCCCCC(=O)N[C@@H](CCCNC(=N)N)C(=O)N[C@@H](CCCCNC(=O)[C@H]1NC(=O)[C@H]2NC(=O)[C@H](NC(=O)[C@@H]3NC(=O)[C@H](CC(N)=O)NC(=O)[C@H](NC(=O)[C@@H](CC(C)C)NC)[C@H](O)c4ccc(c(Cl)c4)Oc4cc3cc(c4O[C@@H]3O[C@H](CO)[C@@H](O)[C@H](O)[C@H]3O[C@H]3C[C@](C)(N)[C@H](O)[C@H](C)O3)Oc3ccc(cc3Cl)[C@H]2O)c2ccc(O)c(c2)-c2c(O)cc(O)cc21)C(=O)O [MCC_007385]
